Laboratory results: ChEMBL document CHEMBL4828722, “The synthesis and bioactivity of pyrrolo[2,3-d]pyrimidine derivatives as tyrosine kinase inhibitors for NSCLC cells with EGFR mutations” (Eur J Med Chem, 2021)
pIC50: −log10 of the molar value. Calls of active or inactive are those of the source. The calls are words filed in the database; no cut-off is given here.

What was measured:
HCC827 [1] = test: Inhibition of AKT phosphorylation in human HCC827 cells at 0.1 to 5 uM incubated for 2 hrs by immunoblotting analysis; format: cell-based; settings: dose 0.1-5 µM
NCI-H1975 [2] = test: Induction of cell cycle arrest in human NCI-H1975 cells harboring EGFR L858R/T790M mutant assessed as accumulation of cells in G0/G1 phase at 0.5 uM measured after 18 hrs by PI/RNaseA staining based flow cytometry analysis (Rvb= 42.69%); format: functional
A549 [3] = test: Induction of cell cycle arrest in human A549 cells harboring wild type EGFR assessed as accumulation of cells in S phase at 5 uM measured after 18 hrs by PI/RNaseA staining based flow cytometry analysis (Rvb= 33.26%); format: functional
HCC827 [4] = test: Induction of apoptosis in human HCC827 cells harboring EGFR del E746-A750 mutant assessed as late apoptotic cells at 5 uM measured after 18 hrs by Annexin V-FITC/PI staining based flow cytometry analysis (Rvb= 1.2%); format: functional
NCI-H1975 [5] = test: Induction of cell cycle arrest in human NCI-H1975 cells harboring EGFR L858R/T790M mutant assessed as accumulation of cells in S phase at 0.5 uM measured after 18 hrs by PI/RNaseA staining based flow cytometry analysis (Rvb= 39.78%); format: functional
NCI-H1975 [6] = test: Induction of apoptosis in human NCI-H1975 cells harboring EGFR L858R/T790M mutant assessed as early apoptotic cells at 5 uM measured after 18 hrs by Annexin V-FITC/PI staining based flow cytometry analysis (Rvb= […]); format: functional
HCC827 [7] = test: Induction of cell cycle arrest in human HCC827 cells harboring EGFR del E746-A750 mutant assessed as accumulation of cells in S phase at 1 uM measured after 18 hrs by PI/RNaseA staining based flow cytometry analysis (Rvb= 33.62%); format: functional
A549 [8] = test: Induction of cell cycle arrest in human A549 cells harboring wild type EGFR assessed as accumulation of cells in G2/M phase at 0.5 uM measured after 18 hrs by PI/RNaseA staining based flow cytometry analysis (Rvb= 8.47%); format: functional
[9] = biological target: Mitogen-activated protein kinase; ERK1/ERK2 (Homo sapiens) (UniProt P27361+P28482); test: Inhibition of ERK1/2 phosphorylation at Thr202/Tyr204 residue in human HBE cells at 5 uM incubated for 2 hrs by immunoblotting analysis; format: cell-based
HCC827 [10] = test: Induction of apoptosis in human HCC827 cells harboring EGFR del E746-A750 mutant assessed as live cells at 5 uM measured after 18 hrs by Annexin V-FITC/PI staining based flow cytometry analysis (Rvb= 87.5%); format: functional
NCI-H1975 [11] = test: Induction of cell cycle arrest in human NCI-H1975 cells harboring EGFR L858R/T790M mutant assessed as accumulation of cells in G2/M phase at 5 uM measured after 18 hrs by PI/RNaseA staining based flow cytometry analysis (Rvb= 17.33%); format: functional
HCC827 [12] = test: Induction of cell cycle arrest in human HCC827 cells harboring EGFR del E746-A750 mutant assessed as accumulation of cells in G0/G1 phase at 5 uM measured after 18 hrs by PI/RNaseA staining based flow cytometry analysis (Rvb= 49.60%); format: functional
NCI-H1975 [13] = test: Induction of apoptosis in human NCI-H1975 cells harboring EGFR L858R/T790M mutant assessed as late apoptotic cells at 0.5 uM measured after 18 hrs by Annexin V-FITC/PI staining based flow cytometry analysis (Rvb= 0.1%); format: functional
NCI-H1975 [14] = test: Induction of cell cycle arrest in human NCI-H1975 cells harboring EGFR L858R/T790M mutant assessed as accumulation of cells in G2/M phase at 0.5 uM measured after 18 hrs by PI/RNaseA staining based flow cytometry analysis (Rvb= 17.33%); format: functional
HCC827 [15] = test: Induction of cell cycle arrest in human HCC827 cells harboring EGFR del E746-A750 mutant assessed as accumulation of cells in S phase at 0.5 uM measured after 18 hrs by PI/RNaseA staining based flow cytometry analysis (Rvb= 33.62%); format: functional
HCC827 [16] = test: Cytotoxicity against human HCC827 cells harboring EGFR del E746-A750 mutant assessed as reduction in cell viability measured after 48 hrs by CCK8 assay; format: functional, cell-based; settings: HCC827, 48 h
HCC827 [17] = test: Induction of apoptosis in human HCC827 cells harboring EGFR del E746-A750 mutant assessed as dead cells at 5 uM measured after 18 hrs by Annexin V-FITC/PI staining based flow cytometry analysis (Rvb= […]); format: functional
HCC827 [18] = test: Induction of apoptosis in human HCC827 cells harboring EGFR del E746-A750 mutant assessed as total apoptotic cells at 0.5 uM measured after 18 hrs by Annexin V-FITC/PI staining based flow cytometry analysis (Rvb= 10.8%); format: functional
BEAS-2B = test: Cytotoxicity against human BEAS-2B cells assessed as reduction in cell viability measured after 48 hrs by CCK8 assay; format: cell-based
A549 [19] = test: Induction of cell cycle arrest in human A549 cells harboring wild type EGFR assessed as accumulation of cells in G2/M phase at 5 uM measured after 18 hrs by PI/RNaseA staining based flow cytometry analysis (Rvb= 8.47%); format: functional
NCI-H1975 [20] = test: Induction of cell cycle arrest in human NCI-H1975 cells harboring EGFR L858R/T790M mutant assessed as accumulation of cells in G0/G1 phase at 5 uM measured after 18 hrs by PI/RNaseA staining based flow cytometry analysis (Rvb= 42.69%); format: functional
NCI-H1975 [21] = test: Induction of apoptosis in human NCI-H1975 cells harboring EGFR L858R/T790M mutant assessed as dead cells at 5 uM measured after 18 hrs by Annexin V-FITC/PI staining based flow cytometry analysis (Rvb= […]); format: functional
A549 [22] = test: Induction of cell cycle arrest in human A549 cells harboring wild type EGFR assessed as accumulation of cells in S phase at 1 uM measured after 18 hrs by PI/RNaseA staining based flow cytometry analysis (Rvb= 33.26%); format: functional
NCI-H1975 [23] = test: Induction of apoptosis in human NCI-H1975 cells harboring EGFR L858R/T790M mutant assessed as total apoptotic cells at 0.5 uM measured after 18 hrs by Annexin V-FITC/PI staining based flow cytometry analysis (Rvb= 9.2%); format: functional
HCC827 [24] = test: Induction of apoptosis in human HCC827 cells harboring EGFR del E746-A750 mutant assessed as live cells at 0.5 uM measured after 18 hrs by Annexin V-FITC/PI staining based flow cytometry analysis (Rvb= 87.5%); format: functional
A549 [25] = test: Induction of cell cycle arrest in human A549 cells harboring wild type EGFR assessed as accumulation of cells in G2/M phase at 1 uM measured after 18 hrs by PI/RNaseA staining based flow cytometry analysis (Rvb= 8.47%); format: functional
HCC827 [26] = test: Induction of cell cycle arrest in human HCC827 cells harboring EGFR del E746-A750 mutant assessed as accumulation of cells in S phase at 5 uM measured after 18 hrs by PI/RNaseA staining based flow cytometry analysis (Rvb= 33.62%); format: functional

Chain of Mitogen-activated protein kinase; ERK1/ERK2 (Homo sapiens) (P27361 whole entry, looked up): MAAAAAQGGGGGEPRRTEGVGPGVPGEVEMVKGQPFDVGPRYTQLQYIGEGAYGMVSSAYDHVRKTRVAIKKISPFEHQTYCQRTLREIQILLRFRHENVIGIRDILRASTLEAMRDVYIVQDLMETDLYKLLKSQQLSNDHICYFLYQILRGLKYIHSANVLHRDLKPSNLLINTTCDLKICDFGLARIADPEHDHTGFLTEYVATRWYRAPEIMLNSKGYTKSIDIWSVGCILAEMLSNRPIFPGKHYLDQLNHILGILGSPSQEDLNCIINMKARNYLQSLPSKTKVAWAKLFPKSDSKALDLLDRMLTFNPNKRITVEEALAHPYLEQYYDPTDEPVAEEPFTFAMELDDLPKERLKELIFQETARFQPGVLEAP
Chain of Mitogen-activated protein kinase; ERK1/ERK2 (Homo sapiens) (P28482 whole entry, looked up): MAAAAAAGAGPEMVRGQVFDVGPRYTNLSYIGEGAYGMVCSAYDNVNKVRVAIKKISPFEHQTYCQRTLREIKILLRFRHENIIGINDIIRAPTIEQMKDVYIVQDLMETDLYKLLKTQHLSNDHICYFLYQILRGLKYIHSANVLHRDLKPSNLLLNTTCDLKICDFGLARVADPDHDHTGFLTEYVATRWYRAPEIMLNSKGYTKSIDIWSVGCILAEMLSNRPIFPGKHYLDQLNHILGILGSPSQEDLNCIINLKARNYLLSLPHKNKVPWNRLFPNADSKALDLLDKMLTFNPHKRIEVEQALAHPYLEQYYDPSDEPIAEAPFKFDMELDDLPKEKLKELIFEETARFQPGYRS

SMILES | inhibition (HCC827 [1]) | Activity (NCI-H1975 [2]) | Activity (A549 [3]) | Activity (HCC827 [4]) | Activity (NCI-H1975 [5]) | Activity (NCI-H1975 [6]) | Activity (HCC827 [7]) | Activity (A549 [8]) | inhibition [9] | Activity (HCC827 [10]) | Activity (NCI-H1975 [11]) | Activity (HCC827 [12]) | Activity (NCI-H1975 [13]) | Activity (NCI-H1975 [14]) | Activity (HCC827 [15]) | pIC50 (HCC827 [16]) | Activity (HCC827 [17]) | Activity (HCC827 [18]) | pIC50 (BEAS-2B) | Activity (A549 [19]) | further results
C=CC(=O)Nc1cccc(Oc2nc(Nc3ccc(N4CCN(C)CC4)c(N)c3)nc3[nH]ccc23)c1 | Active | 64.04% | 6.86% | 16.6% | 19.32% | 15.9% | 20.39% | 10.49% | Active | 74.3% | 9.23% | 78.12% | 0.3% | 16.64% | 15.39% | 7.34 | 2.1% | 23.6% | 5.11 | 8.09% | Activity (NCI-H1975 [20]): 80.62%; Activity (NCI-H1975 [21]): 2%; Activity (A549 [22]): 26.07%; Activity (NCI-H1975 [23]): 16.4%; Activity (HCC827 [24]): 69.1%; Activity (A549 [25]): 9.7%; Activity (HCC827 [26]): 13.93%
C=CC(=O)Nc1cccc(Oc2nc(Nc3ccc(N4CCN(C)CC4)c(F)c3)nc3[nH]ccc23)c1 [ABIVERTINIB] | Active | 61.74% | 14.85% | 21.6% | 21.24% | 11.3% | 15.37% | 10.15% | Active | 63% | 11.14% | 80.34% | 1.2% | 17.05% | 15.36% | 7.00 | 1.5% | 30.3% | 5.43 | 7.55% | Activity (NCI-H1975 [20]): 79.06%; Activity (NCI-H1975 [21]): 2%; Activity (A549 [22]): 28.99%; Activity (NCI-H1975 [23]): 9.5%; Activity (HCC827 [24]): 67.9%; Activity (A549 [25]): 8.97%; Activity (HCC827 [26]): 10.83%
C=CC(=O)Nc1cccc(Oc2nc(Nc3ccc(N4CCN(C)CC4)c([N+](=O)[O-])c3)nc3[nH]ccc23)c1 | Active | 64.89% | 8.2% | 19.4% | 20.79% | 13.2% | 10.81% | 9.99% | Active | 73.7% | 9.63% | 81.52% | 0.3% | 14.32% | 14.31% | 6.96 | 2.5% | 23.8% | 5.43 | 9.25% | Activity (NCI-H1975 [20]): 80.34%; Activity (NCI-H1975 [21]): 1.8%; Activity (A549 [22]): 21.21%; Activity (NCI-H1975 [23]): 12.7%; Activity (HCC827 [24]): 68.2%; Activity (A549 [25]): 8.33%; Activity (HCC827 [26]): 4.36%
